What all share (format): cell-based, human
The test system of assay [1] is peritoneal macrophages. The assay can be described thus: membrane-bound thiol expression of peritoneal macrophages. Conditions: FIG. 5. The protocol: Peritoneal macrophages were isolated from the effluate of the peritoneal dialysis of high-grade renally insufficient patients, taken up in cell culture medium and incubated in a gas incubator at 37° C., a relative humidity of 98% and 7.5% relative air-CO2 content. In order to test the influence of the combinations used according to the invention on the thiol status of the peritoneal macrophages, in each case a fraction was treated with α-lipoic acid, the effector of the glutathione metabolism ambroxole or the ACE inhibitor enalapril or with the combination of α-lipoic acid/ambroxole or α-lipoic acid/enalapril, while in each case a further fraction was used as an untreated control. The determination of the cellular thiol status was carried out by means of the measuring method described under 1. The membrane expression of thiols was determined by means of the mean fluorescence intensity (mfi) of the sample (3000 cells/measurement) after coupling to a chloromethylfluorochrome derivative. In FIG. 5, the action of the combination of α-lipoic acid and enalapril (FIG. 5b) on the membrane-bound thiol expression of peritoneal macrophages in the experimental setup described above is presented. The membrane expression of thiols was determined by means of the mean fluorescence intensity (mfi) of the sample (3000 cells/measurement) after coupling to a chloro-methylfluorochrome derivative.

In assay [2] the test system is peritoneal macrophages. The assay can be described thus: cytokine synthesis of peritoneal macrophages (enzyme immunoassay). The note with it: treatment period of 6 days (n=10); α-lipoic acid 50 μM, ambroxole 10 μM, enalapril 5 μM, captopril 10 μM. The method, then:
In parallel to this, in this experimental batch the cell culture supernatants were recovered and the cytokines interleukin-6 (IL-6) and interleukin-1 receptor antagonist (IL-1ra) contained therein, synthesized and secreted by the peritoneal macrophages, were determined.

Assay [3] relates to peritoneal macrophages. Description: stability of intracellular thiol restitution in peritoneal macrophages in the dialysis model. The protocol: (§1) The peritoneal macrophages described under example 3, which were thiol-restituted by means of the combinations used according to the invention, were removed from this test system after 6 days and cultured in a dialysis model over a period of 14 days. For this, the peritoneal macrophages were adapted to mobile collagen IV-coated matrices and brought into contact with conventional dialysis solution 3 times daily for 60 minutes each. This model served here for the induction of a combined […]/osmotic stress. In FIG. 6, the action of the combination of α-lipoic acid and ambroxole (FIG. 6a), and α-lipoic acid and enalapril (FIG. 6b) on the intracellular thiol expression of the peritoneal macrophages in the time kinetics is presented. The membrane expression of thiols was determined by means of the mean fluorescence intensity (mfi) of the sample (3000 cells/measurement) after coupling to a chloro-methylfluorochrome derivative.

The subject of assay [4] is peritoneal macrophages. The assay can be described thus: phagocytic ability of peritoneal macrophages (fluorochrome-labelled bacteria). The note with it: treatment period of 6 days. The protocol:
Peritoneal macrophages were isolated analogously to the procedure described under example 3 and cultured ex vivo. The determination of the phagocytic power was carried out by means of a cytofluorometric test at the individual cell level. In this test, the macrophages were cocultured with opsonized and fluorochrome-labelled bacteria. The amount of bacteria taken up in a defined time period was recorded quantitatively by means of the fluorescence intensity in the macrophages and was regarded as a measure of their phagocytic capacity. The influence of the combinations used according to the invention on the phagocytic ability of the peritoneal macrophages after a treatment period of 6 days is presented in Table 3.

Assay [5] deals with lymphocytes (peripheral immune cells). Description: intracellular thiol expression of peripheral immune cells (CMFDA flow cytofluorimetry). Conditions: for intracellular thiol expression: α-lipoic acid 50 μM, captopril 10 μM, combination at the same concentrations. The protocol:
Peripheral immune cells of healthy donors (n=9) were isolated from the peripheral blood by means of density gradient centrifugation. Lymphocytes having a donor-dependent relative proportion of about 90% in this case normally represent the main fraction of the resulting total population of mononuclear cells. 10% of the mononuclear cells are represented by monocytes. The mononuclear cells obtained were taken up in special cell culture media and incubated in a gas incubator at 37° C., a relative humidity of 98% and 5% relative air-CO2 content. The metabolism of the primarily resting immune cells was activated by means of mitogenic stimulation (0.5 μg/ml of phytohemagglutinin). In order to test the influence of the combinations used according to the invention on the thiol status of thiol-deficient immune cells, these were artificially thiol-depleted. This was carried out by culturing in thiol-deficient media (RPMI 1603) according to tested procedures. Comparison cultures using whole media (RPMI 1640) served for the definition of the best possible normal value under culture conditions. […] Primarily nonfluorogenic CMFDA is in this case passively taken up by the cell. Binding to cytoplasmic thiol groups takes place via the chloromethyl radical. After removal of the acetate radicals by nonspecific cellular esterases, this, now cell membrane-impermeable complex becomes fluorogenic at an excitation wavelength λex=490 nm with an emission wavelength λem=520 nm. The mean fluorescence intensity of the sample (10,000 cells) is directly proportional to the concentration of the intracellular thiol groups. In FIG. 1, the action of the combination of α-lipoic acid and ambroxole (FIG. 1a) and α-lipoic acid and enalapril (FIG. 1b) on the intracellular thiol expression of lymphocytes is shown. […] The data are shown as the ratio of the cellular fluorescence intensity for calibration particles (beads) in each case analyzed in parallel. The active compound concentration of the respective combination is identical to the concentrations of the individual components.

In assay [6] the test system is peritoneal macrophages. Description: stability of membrane-bound thiol restitution in peritoneal macrophages in the dialysis model. Conditions: dialysis model over 14 days; FIG. 7. The protocol: as §1

In the case of `O=C(O)CCCCC1CCSS1` (stereo not drawn) [α-lipoic acid], in the assay on peritoneal macrophages [1], the “effect on the membrane-bound thiol expression of peritoneal macrophages (in words)” value was “very marked effect of the sole administration of α-lipoic acid is to be noted here, which, however, is cancelled out again after 4 days of treatment”. In addition, the IL-1ra with peritoneal macrophages [2] came out at 119.8 ± 19.5 ng/10^6 cells. In addition, in the assay with peritoneal macrophages [2], the IL-6 is given as 46.9 ± 6.7 ng/10^6 cells. In addition, in the assay with peritoneal macrophages [3] (after about 4 days in the dialysis model), the “action relative to the action of the combinations” value was “approximately 50%”. Besides, the “intracellular thiol status in the dialysis model (in words)” value in the assay with peritoneal macrophages [3] (dialysis model over 14 days, FIG. 6) is listed as “only short-lasting”. Also, the “increase in the phagocytosis rate in relation to the untreated control, factor” value in the assay on peritoneal macrophages [4] worked out at 1.85. Also, the Phagocytosis rate in the assay on peritoneal macrophages [4] (α-lipoic acid 50 μM, ambroxole 10 μM, enalapril 5 μM, captopril 10 μM) is on record as 687 ± 59 mfi/10,000 cells. The intracellular thiol expression in assay [5] (culture period 0 d) is 2.88 ± 0.20 mfiBeads/Ratio; in assay [5] (culture period 1 d), 2.81 ± 0.23 mfiBeads/Ratio; in assay [5] (culture period 2 d), 2.76 ± 0.50 mfiBeads/Ratio; in assay [5] (culture period 3 d) it was 2.63 ± 0.60 mfiBeads/Ratio; in assay [5] (culture period 4 d), 2.41 ± 0.40 mfiBeads/Ratio; in assay [5] (culture period 6 d) it was 2.23 ± 0.50 mfiBeads/Ratio. Moreover, the intracellular thiol expression in assay [5] (culture period 8 d) came out at 2.02 ± 0.30 mfiBeads/Ratio; in assay [5] (culture period 10 d) it was 1.89 ± 0.30 mfiBeads/Ratio; in assay [5] (culture period 12 d), 1.86 ± 0.68 mfiBeads/Ratio; in assay [5] (culture period 14 d) it was 1.83 ± 0.60 mfiBeads/Ratio. The “effect on the intracellular thiol deficit (in words)” value in assay [5] (thiol-deficient conditions (1603), FIG. 1) is listed as “Neither by α-lipoic acid alone nor by the individual application of the effectors was a complete equalization of the thiol deficit possible”. Besides, the “membrane-bound thiol expression in the dialysis model (in words)” value in the assay with peritoneal macrophages [6] is “intermediate”.

For the origin of these results see patent publication US7531567B2, “Use of a medicament containing an effector of the glutathione metabolism together with α-lipoic acid in kidney replacement therapy” (Serumwerk Bernburg AG, priority 2001, dated 2009).
